“And” between values parts separate entries of the source, which are not always exact repeats. Equal entries are not always repeated. Inconclusive results and toxic doses are left out.
Tested on: P388 leukemia ip, CD2F1 mice, survival T/C
Test: NCI In Vivo Anticancer Drug Screen. Data for tumor model P388 Leukemia (intraperitoneal) in CD2F1 (CDF1) mice
Conditions: endpoint: median survival time, higher = longer survival
In short: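 Mice carrying the transplanted tumor received test compound or vehicle. Survival was recorded in each group, and the value is the treated-group measurement divided by that of the vehicle-treated control group.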

[1] = dose: 50.0 mg/kg/injection, schedule: Q01DX005 (ip), vehicle: saline with Tween-80
[2] = dose: 30.0 mg/kg/injection, schedule: Q01DX005 (ip), vehicle: saline with Tween-80
[3] = dose: 50.0 mg/kg/injection, schedule: Q01DX005 (ip), vehicle: Klucel (hydroxypropylcellulose) (HPC)
[4] = dose: 100.0 mg/kg/injection, schedule: Q01DX005 (ip), vehicle: Klucel (hydroxypropylcellulose) (HPC)
[5] = dose: 200.0 mg/kg/injection, schedule: Q01DX005 (ip), vehicle: Klucel (hydroxypropylcellulose) (HPC)
[6] = dose: 60.0 mg/kg/injection, schedule: Q01DX005 (ip), vehicle: saline with Tween-80
[7] = dose: 120.0 mg/kg/injection, schedule: Q01DX005 (ip), vehicle: saline with Tween-80
[8] = dose: 240.0 mg/kg/injection, schedule: Q01DX005 (ip), vehicle: saline with Tween-80
[9] = dose: 100.0 mg/kg/injection, schedule: Q01DX001 (ip), vehicle: saline with Tween-80
[10] = dose: 200.0 mg/kg/injection, schedule: Q01DX001 (ip), vehicle: saline with Tween-80
[11] = dose: 100.0 mg/kg/injection, schedule: Q01DX005 (ip), vehicle: saline with Tween-80
[12] = dose: 200.0 mg/kg/injection, schedule: Q01DX005 (ip), vehicle: saline with Tween-80

Nc1ncnc2c1ncn2C1OC(CO)C2OC(=S)OC21 (stereo not drawn)
T/C (dose: 25.0 mg/kg/injection, schedule: Q01DX009 (ip), vehicle: saline with Tween-80): 96 % of control | T/C (dose: 50.0 mg/kg/injection, schedule: Q01DX009 (ip), vehicle: saline with Tween-80): 101 % of control | T/C (dose: 100.0 mg/kg/injection, schedule: Q01DX009 (ip), vehicle: saline with Tween-80): 100 % of control | T/C (dose: 200.0 mg/kg/injection, schedule: Q01DX009 (ip), vehicle: saline with Tween-80): 100 % of control

CC(=O)NC(C)CC1=CC(=O)C(C)=CC1=O (stereo not drawn)
T/C (dose: 25.0 mg/kg/injection, schedule: Q01DX001 (ip), vehicle: Klucel (hydroxypropylcellulose) (HPC)): 95 % of control

O=[C-]/C=C\[C-]=O.[C-]#[O+].[C-]#[O+].[C-]#[O+].[C-]#[O+].[Fe+2]
T/C (dose: 12.5 mg/kg/injection, schedule: Q01DX005 (ip), vehicle: saline with Tween-80): 112 % of control | T/C (dose: 25.0 mg/kg/injection, schedule: Q01DX005 (ip), vehicle: saline with Tween-80): 110 % of control | T/C [1]: 100 % of control

NCCNC[Si](c1ccccc1)(c1ccccc1)c1ccccc1
T/C (dose: 15.0 mg/kg/injection, schedule: Q01DX005 (ip), vehicle: saline with Tween-80): 102 % of control | T/C [2]: 102 % of control

Cn1nnnc1CCN(CCN(CCc1nnnn1C)/N=C\c1ccccc1)/N=C\c1ccccc1
T/C (dose: 50.0 mg/kg/injection, schedule: Q04DX003 (ip), vehicle: Klucel (hydroxypropylcellulose) (HPC)): 95 % of control | T/C (dose: 100.0 mg/kg/injection, schedule: Q04DX003 (ip), vehicle: Klucel (hydroxypropylcellulose) (HPC)): 95 % of control | T/C (dose: 200.0 mg/kg/injection, schedule: Q04DX003 (ip), vehicle: Klucel (hydroxypropylcellulose) (HPC)): 96 % of control

CC(=O)C(N)CC(C)C (stereo not drawn)
T/C (dose: 50.0 mg/kg/injection, schedule: Q01DX005 (ip), vehicle: saline): 98 % of control | T/C (dose: 100.0 mg/kg/injection, schedule: Q01DX005 (ip), vehicle: saline): 100 % of control | T/C (dose: 200.0 mg/kg/injection, schedule: Q01DX005 (ip), vehicle: saline): 107 % of control

C=C1CC2(CC(C(C)C)CCC2C)OC1=O (stereo not drawn)
T/C (dose: 100.0 mg/kg/injection, schedule: Q01DX001 (ip), vehicle: saline): 105 % of control | T/C (dose: 200.0 mg/kg/injection, schedule: Q01DX001 (ip), vehicle: saline): 100 % of control | T/C (dose: 400.0 mg/kg/injection, schedule: Q01DX001 (ip), vehicle: saline): 105 % of control

O=C(c1ccc(Cl)cc1)n1c(Cl)c(/C=N\Nc2cccc([N+](=O)[O-])c2)c2ccccc21
T/C (dose: 50.0 mg/kg/injection, schedule: Q01DX001 (ip), vehicle: Klucel (hydroxypropylcellulose) (HPC)): 86 % of control | T/C (dose: 100.0 mg/kg/injection, schedule: Q01DX001 (ip), vehicle: Klucel (hydroxypropylcellulose) (HPC)): 86 % of control | T/C (dose: 200.0 mg/kg/injection, schedule: Q01DX001 (ip), vehicle: Klucel (hydroxypropylcellulose) (HPC)): 87 % of control

C1=C(c2ccccc2)OC(c2ccccc2)=C[P+]1(c1ccccc1)c1ccccc1
T/C (dose: 1.56 mg/kg/injection, schedule: Q01DX005 (ip), vehicle: saline with Tween-80): 105 % of control | T/C (dose: 3.12 mg/kg/injection, schedule: Q01DX005 (ip), vehicle: saline with Tween-80): 120 % of control | T/C (dose: 6.25 mg/kg/injection, schedule: Q01DX005 (ip), vehicle: saline with Tween-80): 97 % of control

O=[N+]([O-])c1ccc(N2C(c3ccccc3)=N[C@@H](N3CCOCC3)[C@@H]2N2CCOCC2)cc1
T/C [3]: 101 % of control | T/C [4]: 97 % of control | T/C [5]: 95 % of control

O=C(c1ccccc1)N(CCO)CCO
T/C (dose: 50.0 mg/kg/injection, schedule: Q01DX009 (ip), vehicle: saline): 108 % of control | T/C (dose: 100.0 mg/kg/injection, schedule: Q01DX009 (ip), vehicle: saline): 94 % of control | T/C (dose: 200.0 mg/kg/injection, schedule: Q01DX009 (ip), vehicle: saline): 101 % of control

CCOC(=O)C1=CC(C)(C)OC1=O
T/C [6]: 99 % of control and 106 % of control | T/C [7]: 110 % of control and 118 % of control | T/C [8]: 101 % of control and 124 % of control

CC(C)(C)NC(=O)C(Cl)Cl
T/C (dose: 50.0 mg/kg/injection, schedule: Q01DX001 (ip), vehicle: saline with Tween-80): 100 % of control | T/C [9]: 100 % of control | T/C [10]: 95 % of control

COC(=O)C1(C)CCCC1=O (stereo not drawn)
T/C (dose: 50.0 mg/kg/injection, schedule: Q01DX009 (ip), vehicle: other): 96 % of control | T/C (dose: 100.0 mg/kg/injection, schedule: Q01DX009 (ip), vehicle: other): 95 % of control | T/C (dose: 200.0 mg/kg/injection, schedule: Q01DX009 (ip), vehicle: other): 99 % of control

N#CC(C(=O)C(=O)Nc1ccccc1)c1c(Cl)cccc1Cl (stereo not drawn)
T/C [6]: 98 % of control | T/C [7]: 104 % of control | T/C [8]: 98 % of control

CCOC(=O)C(Cc1ccc(O)c(C#N)c1)NC(C)=O (stereo not drawn)
T/C [1]: 97 % of control | T/C [11]: 97 % of control | T/C [12]: 95 % of control

CCSc1nc2ccc(N=Cc3ccc(NS(=O)(=O)c4ccccc4)cc3O)cc2s1
T/C (dose: 50.0 mg/kg/injection, schedule: Q01DX009 (ip), vehicle: Klucel (hydroxypropylcellulose) (HPC)): 116 % of control | T/C (dose: 100.0 mg/kg/injection, schedule: Q01DX009 (ip), vehicle: Klucel (hydroxypropylcellulose) (HPC)): 103 % of control

Nc1ccc2c3c(cccc13)C(=O)N(CCCBr)C2=O
T/C [6]: 103 % of control | T/C [7]: 113 % of control | T/C [8]: 107 % of control

CC(C)(C#N)NCCCCCCNC(C)(C)C#N
T/C [3]: 96 % of control | T/C [4]: 93 % of control | T/C [5]: 100 % of control

Cc1ccc(C)c2c(Nc3ccc4c(c3)OCO4)c(C(=O)O)cnc12
T/C (dose: 60.0 mg/kg/injection, schedule: Q01DX005 (ip), vehicle: Klucel + Tween-80): 95 % of control | T/C (dose: 120.0 mg/kg/injection, schedule: Q01DX005 (ip), vehicle: Klucel + Tween-80): 93 % of control

OCC1CCCC1CO (stereo not drawn)
T/C [1]: 106 % of control and 101 % of control | T/C [11]: 105 % of control and 101 % of control | T/C [12]: 100 % of control and 114 % of control

CC1(C)c2ccccc2C(=O)c2ccccc21
T/C [1]: 103 % of control | T/C [11]: 100 % of control | T/C [12]: 103 % of control

CCOC(=O)C1=C(C(=O)c2ccc(OC)cc2)C(c2cccc([N+](=O)[O-])c2)C(C(=O)c2ccc(OC)cc2)=C(C(=O)OCC)N1
T/C [2]: 93 % of control | T/C [6]: 90 % of control and 96 % of control | T/C [7]: 94 % of control | T/C [8]: 90 % of control

Cc1ccc(NC2SC(=O)N(Cc3ccccc3)/C2=N/N=C2\C(Nc3ccc(C)cc3)SC(=O)N2Cc2ccccc2)cc1 (stereo not drawn)
T/C (dose: 100.0 mg/kg/injection, schedule: Q04DX002 (ip), vehicle: Klucel (hydroxypropylcellulose) (HPC)): 97 % of control | T/C (dose: 200.0 mg/kg/injection, schedule: Q04DX002 (ip), vehicle: Klucel (hydroxypropylcellulose) (HPC)): 97 % of control | T/C (dose: 400.0 mg/kg/injection, schedule: Q04DX002 (ip), vehicle: Klucel (hydroxypropylcellulose) (HPC)): 97 % of control

CCC[CH2][Sn]([Cl])([Cl])[CH2]CCC
T/C (dose: 0.19 mg/kg/injection, schedule: Q01DX009 (ip), vehicle: saline with Tween-80): 100 % of control | T/C (dose: 0.38 mg/kg/injection, schedule: Q01DX009 (ip), vehicle: saline with Tween-80): 113 % of control | T/C (dose: 0.75 mg/kg/injection, schedule: Q01DX009 (ip), vehicle: saline with Tween-80): 114 % of control and 120 % of control | T/C (dose: 1.5 mg/kg/injection, schedule: Q01DX009 (ip), vehicle: saline with Tween-80): 112 % of control and 114 % of control | T/C (dose: 3.0 mg/kg/injection, schedule: Q01DX009 (ip), vehicle: saline with Tween-80): 168 % of control | T/C (dose: 6.0 mg/kg/injection, schedule: Q01DX009 (ip), vehicle: saline with Tween-80): 91 % of control | T/C (dose: 100.0 mg/kg/injection, schedule: Q04DX003 (ip), vehicle: saline): 109 % of control

C=C1COC(=O)[C@@]12CC[C@@]1(C)[C@@H](CC[C@@H]3[C@@H]1CC[C@]1(C)C([C@H](C)CCCC(C)C)CC[C@@H]31)C2 (stereo partly drawn)
T/C [9]: 96 % of control | T/C [10]: 93 % of control | T/C (dose: 400.0 mg/kg/injection, schedule: Q01DX001 (ip), vehicle: saline with Tween-80): 91 % of control

COC(=O)C1=CO[C@@H](OC2OC(CO)C(O)C(O)C2O)[C@H]2[C@@H]1C=C[C@@]21C=C([C@@H](C)O)C(=O)O1 (stereo partly drawn)
T/C (dose: 1.63 mg/kg/injection, schedule: Q01DX005 (ip), vehicle: Klucel (hydroxypropylcellulose) (HPC)): 99 % of control | T/C (dose: 3.25 mg/kg/injection, schedule: Q01DX005 (ip), vehicle: Klucel (hydroxypropylcellulose) (HPC)): 101 % of control | T/C (dose: 6.5 mg/kg/injection, schedule: Q01DX005 (ip), vehicle: Klucel (hydroxypropylcellulose) (HPC)): 101 % of control | T/C (dose: 13.0 mg/kg/injection, schedule: Q01DX005 (ip), vehicle: Klucel (hydroxypropylcellulose) (HPC)): 95 % of control

— PubChem BioAssay AID330 (DTP/NCI, 2004)
